From patent publication US9229013B2, “Vasoactive hormone-based stratification of patients suffering from diseases related to endothelial function/dysfunction” (B.R.A.H.M.S GMBH, priority 2009, dated 2016)
Marks after values point to notes of the source that are not given here.

Assays:
[1] = test system: patients having suffered a myocardial infarction; assay: LAMP study (Outcome Death): hazard ratio medication vs no medication, stratified by biomarker quintile; assay type: in vivo, human; settings: for HR Medicament in Marker-Quantile 1 / HR Medicament in Marker-Quantile 2-4 / HR Medicament in Marker-Quantile 5 / HR Medicament (overall patient group): LAMP, Outcome Death
Excerpt: (§1) Suitable threshold levels for the stratification of subjects into different groups (categories) have to be determined for each particular combination of vasoactive hormone or fragments thereof or precursors or fragments thereof, medication and disease. This can e.g. be done by grouping a reference population of patients according to their level of vasoactive hormone into certain quantiles, e.g. tertiles, quartiles, quintiles or even according to suitable percentiles. […] A HR around 1 (e.g. +/−0.1) indicates no elevated risk but also no benefit from medication for the particular group of patients.
(§2) FIGS. 14 to 21 illustrate the survival rate for patients suffering from myocardial infarction from the “Leicester Acute Myocardial Infarction Peptide Study” (“LAMP”). FIGS. 22 to 34 illustrate the rate of major cardiac events for patients suffering from acute myocardial infarction from “LAMP-Study”.
Acute myocardial infarction was subcategorized into ST-segment elevation myocardial infarction (STEMI) or non-ST-segment myocardial infarction (NSTEMI).
(§3) Blood samples were drawn on 1 occasion 3 to 5 days after the onset of chest pain. After 15 min bed rest, 20 ml blood was collected into tubes containing ethylendiaminetetraacetic acid (EDTA) and aprotinin. All plasma samples were stored at −70° C. until assayed in a blinded fashion in a single batch.
(§4) Survival rates, i.e. the proportion of patients surviving at a given time after entry into the studies, are plotted in the appended figures over time for different combinations of a particular vasoactive hormone with a particular medication. The patients have been stratified into quintiles according to their respective hormone levels. […] For some cases, two or more quintiles have been pooled were appropriate. Hazard ratios (HR) have been calculated for various combinations of particular vasoactive hormones with particular medications. HR have also been calculated for particular quintiles and/or pooled quintiles and compared to overall HR for each combination.

[2] = test system: patients having suffered from ischemic or haemorrhagic stroke or TIA; assay: COSMOS study: survival (deaths), hazard ratio medication vs no medication, stratified by biomarker quintile; assay type: in vivo, human; settings: for effect of administration at high (higher) levels of vasoactive hormones / effect of administration at low (lower) levels of vasoactive hormones: COSMOS study, summary of Table 2; for HR Medicament Marker-Quintile 5 / HR Medicament Marker-Quintile 1 / HR Medicament Marker-Quintile 2-4 / HR Medicament (overall patient group): COSMOS
Excerpt: as §1, with “patients. By comparison of the HR between certain quantiles of patients with each other and with the HR of the overall population of patients, it is possible to identify those quantiles of patients who have an elevated risk and those who benefit from medication and thereby stratify subjects according to the present invention.” for “patients.”
FIGS. 9 to 13 illustrate the survival rate for patients suffering from ischemic stroke, hemorrhagic stroke or transient ischemic attack from the “Copeptin to guide disease severity and Management, Osmostatus and Stress” (“COSMOS”).
The study was set at the emergency and neurological and neurosurgical clinic of the University Hospital of Basel. All consecutive patients who are admitted to the emergency department with an ischemic or hemorrhagic stroke or transient ischemic attack (TIA) according to the World Health Organization criteria with symptom onset within the last 3 days were included into the study. Patients without an informed consent were excluded.
Step 5. In patients with ischemic stroke a telephone follow-up regarding morbidity and mortality (as assessed by the Barthel Index and Ranking Scale) will be obtained after 3 months. An unfavorable outcome will be defined as a Barthel index <85 or modified Ranking scale of 3 to 6. II) Post-Myocardial Infarction (MI) Patients (Leicester Acute Myocardial Infarction Peptide Study (“LAMP”)) Study Population:
as §4
Table 2 lists the results for the patients from the COSMOS study (patients having suffered from ischemic or haemorrhagic stroke or TIA).

[3] = test system: patients having suffered a myocardial infarction; assay: LAMP study (Outcome MACE): hazard ratio medication vs no medication, stratified by biomarker quintile; assay type: in vivo, human
Excerpt: as §1, with “patients. By comparison of the HR between certain quantiles of patients with each other and with the HR of the overall population of patients, it is possible to identify those quantiles of patients who have an elevated risk and those who benefit from medication and thereby stratify subjects according to the present invention.” for “patients.”
as §2
The study involved 983 consecutive patients with acute myocardial infarction (AMI) admitted to the Coronary Care Unit of Leicester Royal Infirmary. […] Acute myocardial infarction was subcategorized into ST-segment elevation myocardial infarction (STEMI) or non-ST-segment myocardial infarction (NSTEMI).
as §3, with “batch. In a subgroup of 132 patients from the original 983-patient cohort, blood sampling was performed daily for 5 days from admission to discharge.” for “batch.”
as §4

[4] = test system: patients with chronic ischemic left ventricular dysfunction; settings: patients exhibiting a higher pre-treatment plasma NT-proBNP and adrenomedullin (ADM); cited from earlier work
[5] = test system: patients with severe congestive heart failure in NYHA class IV; settings: mortality after 6 months; patients stratified by peptide concentrations below and above median; cited from earlier work

## CC(=O)Oc1ccccc1C(=O)O [Acetylsalicylic acid]
[1]; CT-proAVP 0.31-4.6 pmol/L
  HR Medicament in Marker-Quantile 1: >100
[1]; CT-proAVP 4.6-42.1 pmol/L
  HR Medicament in Marker-Quantile 2-4: 0.4
[1]; CT-proAVP 42.1-1040 pmol/L
  HR Medicament in Marker-Quantile 5: 0.3
[1]; MR-proADM 0.035-0.47 nmol/L
  HR Medicament in Marker-Quantile 1: >100
[1]; MR-proADM 0.47-1.18 nmol/L
  HR Medicament in Marker-Quantile 2-4: 0.5
[1]; MR-proADM 1.18-6.75 nmol/L
  HR Medicament in Marker-Quantile 5: 0.3
[1]; MR-proANP 14.5-59.6 pmol/L
  HR Medicament in Marker-Quantile 1: >100
[1]; MR-proANP 59.6-283 pmol/L
  HR Medicament in Marker-Quantile 2-4: 0.4
[1]; MR-proANP 283-1650 pmol/L
  HR Medicament in Marker-Quantile 5: 0.4
[1]; NT-proBNP 0.12-184 pg/mL
  HR Medicament in Marker-Quantile 1: >100
[1]; NT-proBNP 184-2700 pg/mL
  HR Medicament in Marker-Quantile 2-4: 0.3
[1]; NT-proBNP 2700-34100 pg/mL
  HR Medicament in Marker-Quantile 5: 0.5
[1]; biomarker CT-proAVP
  HR Medicament (overall patient group): 0.3
[1]; biomarker MR-proADM
  HR Medicament (overall patient group): 0.3
[1]; biomarker MR-proANP
  HR Medicament (overall patient group): 0.3
[1]; biomarker NT-proBNP
  HR Medicament (overall patient group): 0.3
[2]
  effect of administration at high (higher) levels of vasoactive hormones: unfavourable effect
  effect of administration at low (lower) levels of vasoactive hormones: positive effect
[2]; CT-proAVP 23.5-499 pmol/L
  HR Medicament Marker-Quintile 5: 2.6
[2]; CT-proET-1 4.5-55.5 pmol/L
  HR Medicament Marker-Quintile 1: 0.5
[2]; CT-proET-1 55.5-93.1 pmol/L
  HR Medicament Marker-Quintile 2-4: 1.5
[2]; CT-proET-1 93.1-368 pmol/L
  HR Medicament Marker-Quintile 5: 2.5
[2]; MR-proADM 0.05-0.47 nmol/L
  HR Medicament Marker-Quintile 1: 0.6
[2]; MR-proADM 0.47-0.91 nmol/L
  HR Medicament Marker-Quintile 2-4: 0.7
[2]; MR-proADM 0.91-5.49 nmol/L
  HR Medicament Marker-Quintile 5: 2.4
[2]; MR-proANP 20.8-71.6 pmol/L
  HR Medicament Marker-Quintile 1: <0.1
[2]; MR-proANP 71.6-240 pmol/L
  HR Medicament Marker-Quintile 2-4: 1.7
[2]; MR-proANP 240-1560 pmol/L
  HR Medicament Marker-Quintile 5: 2.3
[2]; Quintiles 1 to 4 are pooled, CT-proAVP 0.69-23.5 pmol/L
  HR Medicament Marker-Quintile 2-4: 0.8*
[2]; biomarker CT-proAVP
  HR Medicament (overall patient group): 1.3
[2]; biomarker CT-proET-1
  HR Medicament (overall patient group): 1.4
[2]; biomarker MR-proADM
  HR Medicament (overall patient group): 1
[2]; biomarker MR-proANP
  HR Medicament (overall patient group): 1.3
[2]; FIG. 12A, marker MR-proANP, overall population, n=209 with medication
  deaths with medication: 20
[2]; FIG. 12B, 1st MR-proANP quintile (22.3-69.5 pmol/L), n=51 with medication
  deaths with medication: 0
[2]; FIG. 12C, 2nd to 4th MR-proANP quintiles (69.5-250 pmol/L), n=124 with medication
  deaths with medication: 6
[2]; FIG. 12D, 5th MR-proANP quintile (250-1540 pmol/L), n=34 with medication
  deaths with medication: 14

## O=C(NCCO[N+](=O)[O-])c1cccnc1 [Nicorandil]
[1]; NT-proBNP 0.3-204 pg/mL
  HR Medicament in Marker-Quantile 1: 4.8
[1]; NT-proBNP 204-3160 pg/mL
  HR Medicament in Marker-Quantile 2-4: <0.1
[1]; NT-proBNP 3160-11800 pg/mL
  HR Medicament in Marker-Quantile 5: 0.5
[1]; biomarker NT-proBNP
  HR Medicament (overall patient group): 0.5
[3]; CT-proET-1 4.6-56.6 pmol/L
  HR Medicament in Marker-Quantile 1: 7.1
[3]; CT-proET-1 56.6-118 pmol/L
  HR Medicament in Marker-Quantile 2-4: 1.2
[3]; CT-proET-1 118-671 pmol/L
  HR Medicament in Marker-Quantile 5: 0.7
[3]; biomarker CT-proET-1
  HR Medicament (overall patient group): 1.2

## O=[N+]([O-])O [Nitrate]
[1]; FIG. 16A, marker CT-proAVP, overall population, n=494 with medication
  deaths with medication: 23
[1]; FIG. 16B, 1st CT-proAVP quintile (0.31-4.6 pmol/L), n=69 with medication
  deaths with medication: 2
[1]; FIG. 16C, 2nd to 4th CT-proAVP quintiles (4.6-42.1 pmol/L), n=318 with medication
  deaths with medication: 11
[1]; FIG. 16D, 5th CT-proAVP quintile (42.1-1040 pmol/L), n=107 with medication
  deaths with medication: 10
[1]; CT-ET-1 3.7-65.4 pmol/L
  HR Medicament in Marker-Quantile 1: 1
[1]; CT-ET-1 65.4-136 pmol/L
  HR Medicament in Marker-Quantile 2-4: 1
[1]; CT-ET-1 136-468 pmol/L
  HR Medicament in Marker-Quantile 5: 0.3
[1]; CT-proAVP 0.31-4.6 pmol/L
  HR Medicament in Marker-Quantile 1: 4.8
[1]; CT-proAVP 4.6-42.1 pmol/L
  HR Medicament in Marker-Quantile 2-4: 0.7
[1]; CT-proAVP 42.1-1040 pmol/L
  HR Medicament in Marker-Quantile 5: 0.3
[1]; MR-proANP 14.5-59.6 pmol/L
  HR Medicament in Marker-Quantile 1: >100
[1]; MR-proANP 59.6-283 pmol/L
  HR Medicament in Marker-Quantile 2-4: 0.9
[1]; MR-proANP 283-1650 pmol/L
  HR Medicament in Marker-Quantile 5: 0.3
[1]; NT-proBNP 0.12-184 pg/mL
  HR Medicament in Marker-Quantile 1: 1.9
[1]; NT-proBNP 184-2700 pg/mL
  HR Medicament in Marker-Quantile 2-4: 0.6
[1]; NT-proBNP 2700-34100 pg/mL
  HR Medicament in Marker-Quantile 5: 0.5
[1]; biomarker CT-ET-1
  HR Medicament (overall patient group): 0.6
[1]; biomarker CT-proAVP
  HR Medicament (overall patient group): 0.5
[1]; biomarker MR-proANP
  HR Medicament (overall patient group): 0.5
[1]; biomarker NT-proBNP
  HR Medicament (overall patient group): 0.7
[3]; CT-proAVP 0.3-3.6 pmol/L
  HR Medicament in Marker-Quantile 1: 2.8
[3]; CT-proAVP 3.6-18.7 pmol/L
  HR Medicament in Marker-Quantile 2-4: 1.2
[3]; CT-proAVP 18.7-441 pmol/L
  HR Medicament in Marker-Quantile 5: 0.6
[3]; CT-proET-1 4.6-56.6 pmol/L
  HR Medicament in Marker-Quantile 1: 2.4
[3]; CT-proET-1 56.6-118 pmol/L
  HR Medicament in Marker-Quantile 2-4: 0.9
[3]; CT-proET-1 118-671 pmol/L
  HR Medicament in Marker-Quantile 5: 0.9
[3]; MR-proADM 0.09-0.53 nmol/L
  HR Medicament in Marker-Quantile 1: 2.4
[3]; MR-proADM 0.53-1.16 nmol/L
  HR Medicament in Marker-Quantile 2-4: 0.9
[3]; MR-proADM 1.16-6.95 nmol/L
  HR Medicament in Marker-Quantile 5: 1
[3]; MR-proANP 4.9-65 pmol/L
  HR Medicament in Marker-Quantile 1: 3.8
[3]; MR-proANP 65-264 pmol/L
  HR Medicament in Marker-Quantile 2-4: 1
[3]; MR-proANP 264-1630 pmol/L
  HR Medicament in Marker-Quantile 5: 0.8
[3]; NT-proBNP 0.12-184 pg/mL
  HR Medicament in Marker-Quantile 1: 2.4
[3]; NT-proBNP 184-2700 pg/mL
  HR Medicament in Marker-Quantile 2-4: 0.8
[3]; NT-proBNP 2700-34100 pg/mL
  HR Medicament in Marker-Quantile 5: 0.9
[3]; biomarker CT-proAVP
  HR Medicament (overall patient group): 1.1
[3]; biomarker CT-proET-1
  HR Medicament (overall patient group): 1.1
[3]; biomarker MR-proADM
  HR Medicament (overall patient group): 1.1
[3]; biomarker MR-proANP
  HR Medicament (overall patient group): 1.1
[3]; biomarker NT-proBNP
  HR Medicament (overall patient group): 1

## COC(=O)[C@H](c1ccccc1Cl)N1CCc2sccc2C1 [Plavix]
[2]
  effect of administration at high (higher) levels of vasoactive hormones: positive effect
  effect of administration at low (lower) levels of vasoactive hormones: unfavourable effect
[2]; MR-proADM 0.05-0.47 nmol/L
  HR Medicament Marker-Quintile 1: 1.8
[2]; MR-proADM 0.47-0.91 nmol/L
  HR Medicament Marker-Quintile 2-4: 0.2
[2]; MR-proADM 0.91-5.49 nmol/L
  HR Medicament Marker-Quintile 5: 0.1
[2]; biomarker MR-proADM
  HR Medicament (overall patient group): 0.3

## COc1ccccc1OCCNCC(O)COc1cccc2[nH]c3ccccc3c12 (stereo not drawn) [carvedilol]
[4]
  effect on mortality and heart failure: reduced mortality and heart failure

## CCOC(=O)[C@H](CCc1ccccc1)N[C@@H](C)C(=O)N1CCC[C@H]1C(=O)O [elanapril]
[5]
  effect on mortality: beneficial effect
